The subject of the assay is LPS-induced release of TNFα from PBMCs from patients suffering from rheumatoid arthritis. The assay is described as follows: ELISA-based TNFα release assay, PBMCs from RA-patients. In kind it is cell-based. Conditions: Homo sapiens, PBMC; chimeric antibodies (CHO) 1 μg/ml; Batimastat 10 μM; LPS 1 ng/ml, 1.5 hours. On the procedure: In contrast to Example 32, where the inhibitory effects of the antibodies of the present disclosure on LPS-induced release of endogenous TNFα from primary human material obtained from healthy donors using peripheral blood mononuclear cells (PBMCs) were tested, this analysis was conducted to analyze the inhibitory effects of the antibodies of the present disclosure on LPS-induced release of endogenous TNFα from primary human material obtained from patients suffering from rheumatoid arthritis (RA-patients).
In brief, on day 1, Nunc black MaxiSorp® 96-well plates (Thermo Fisher Scientific, USA) were coated overnight with 100 μl per well of mouse anti-human TNFα capture antibody (provided as part of the DuoSet ELISA kit) at 4 μg/ml TBS at 4° C. On day 2, the capture antibody solution was removed and MaxiSorp® plates were blocked with 300 μl per well of TBS, 1% BSA at room temperature for 3 hours. […] Using an infinite M1000 (Tecan Group, Switzerland) microplate reader, the fluorescence of each well was collected at an excitation wavelength of 435 nm and an emission wavelength of 555 nm.
(An ELISA detects its analyte on a solid surface through an enzyme-linked reagent.)

What is called inhibition is the percentage by which the read-out fell short of the control. Read a low inhibition as a weak effect. Turning to `CNC(=O)[C@H](Cc1ccccc1)NC(=O)[C@H](CC(C)C)[C@H](CSc1cccs1)C(=O)NO` [Batimastat], the inhibition at 10 µM turned out to be 99.9%.

The values are drawn from patent US20240174744A1, “METHODS OF TREATMENT USING PROTEIN BINDERS TO IRHOM2 EPITOPES” (SCIRHOM GMBH, priority 2021, published 2024).
